Source: patent US8093216B2, “Method of treating cancer by inhibition of p95HER-2 production” (Oregon Health & Science University, priority 1998, dated 2012)
Entries after “also recorded” stand apart in the source; their conditions may differ.

What was measured:
p185HER-2/neu = p185HER-2/neu level in treated cells, Western blot with anti-neu (C); assay type: cell-based, human; conditions: cells treated with TAPI
Protocol: (§1) BT474 cells in serum-free medium were treated for 24 hrs with the control vehicle or with 1, 10, 20, and 40 μM TAPI (a gift from Immunex, Seattle, Wash.). In the top panel (FIG. 5A), the concentrated, conditioned media, normalized to the amount of cell extract, were analyzed by western blotting with anti-neu (N). Similar results were obtained when 5 μg of protein from the conditioned media from each culture were analyzed.
This example illustrates that a metalloprotease inhibitor depressed levels of p95HER-2 and ECD from BT474 cells. Shedding of diverse transmembrane proteins is inhibited by hydroxamic acid-based compounds, which are potent metalloproteinase inhibitors (McGeehan et al., Nature 370:561, 1994; Mohler et al., Nature 370:218-220, 1994; and Arribas et al., J. Biol. Chem. 271:11376-11382, 1996). Therefore, effects of different concentrations of the hydroxamic acid, TAPI (Mohler et al., Nature 370:218-220, 1994) was tested on shedding of HER-2/neu ECD and on cell levels of p95. TAPI (0 to 40 μM) was added to cultured BT474 cells for 24 hrs, the ECD in concentrated conditioned media was analyzed by immunoblotting with anti-neu (N), and p95HER-2 and p185HER-2 polypeptides were examined in cell extracts using an anti-neu (C) monoclonal antibody. […] A residual amount of about 10% of the ECD resisted inhibition by even 40 μM TAPI.

p95HER-2 [1] = assay: p95HER-2 level in a further, unnamed cell line treated with TAPI; assay type: cell-based
HER-2/neu ECD = assay: Shedding of HER-2/neu ECD into conditioned media, Western blot with anti-neu (N), BT474 cells; assay type: cell-based, human
Protocol: Cells were treated for 24 hrs in serum-free medium with control vehicle or with 500 nM of the phorbol ester TPA and 50 μM chloroquine. In the top panel (FIG. 4A), 5 ml of conditioned media was concentrated 100 fold, denatured under nonreducing conditions, and aliquots normalized to cell extract protein were analyzed by western blotting with anti-neu (N) monoclonal antibody at 1 μg/ml. In the lower panel (FIG. 4B), 20 μg of cell proteins were analyzed by Western blotting using anti-neu (C). The data shown in FIG. 4 are representative of three replicate experiments.
as §1, with “[…] In the lower panel (FIG. 5B), 20” for “Similar results were obtained when 5”, “cell proteins” for “protein from the conditioned media from each culture”, “analyzed by Western blotting using anti-neu (C).” for “analyzed.”
Tyrosine phosphorylation of tyrosine kinase receptors generally indicates their activation in signaling (Hynes et al., Biochem. Biophys. Acta 1198:165-184, 1994; and Dougall et al., Oncogene 9: 2109-2123, 1994). The tyrosine phosphorylation of p95HER-2, and its subcellular location were examined by fractionation of BT474 cell extracts into a soluble fraction and a particulate fraction. Each fraction was immunoprecipitated with anti-neu (C) and then subjected to Western blot analysis using monoclonal antibodies against phosphotyrosine. […]
To determine whether p95HER-2 and ECD were coordinately regulated, TPA (500 nM) and chloroquine (50 μM) or the control vehicle were added to the culture media of BT474 and SKOV3 cells. […] At 24 hrs, the ECD levels in the extracellular media and p95HER-2 levels in the cell extract were analyzed. […]

p95HER-2 [2] = assay: Cell level of truncated p95HER-2, Western blot of cell extracts with anti-neu (C), BT474 cells; assay type: cell-based, human
Protocol: as §1, with “[…] In the lower panel (FIG. 5B), 20” for “Similar results were obtained when 5”, “cell proteins” for “protein from the conditioned media from each culture”, “analyzed by Western blotting using anti-neu (C). […]” for “analyzed.”
Therefore, effects of different concentrations of the hydroxamic acid, TAPI (Mohler et al., Nature 370:218-220, 1994) was tested on shedding of HER-2/neu ECD and on cell levels of p95.

[3] = 1 μM TAPI, three separate experiments
[4] = BT474 cells, 24 hrs, 1, 10, 20 and 40 μM TAPI

TAPI
change in p185HER-2/neu levels (p185HER-2/neu): No change
effect on p95HER-2 in a cell line (p95HER-2 [1]): increased
inhibition of ECD level (HER-2/neu ECD; [3]): ≤ 50%
effect on ECD level (HER-2/neu ECD; [4]): inhibited; also recorded: suppressed
production of ECD at 1 μM TAPI (HER-2/neu ECD; BT474 cells, serum-free medium, 24 hrs, 1 μM): partially inhibited
inhibition of p95HER-2 level (p95HER-2 [2]; [3]): ≤ 50%
level of truncated p95HER-2 at 1 μM TAPI (p95HER-2 [2]; BT474 cells, 24 hrs, 1 μM): little or no effect
effect on p95HER-2 level (p95HER-2 [2]; [4]): inhibited; also recorded: suppressed
